IC50 and inhibition data for six molecules are collected here from patent US20260125359A1, “HETEROARYL COMPOUNDS AS MULTI-TARGET PROTEIN KINASE INHIBITORS” (FUJIAN HAIXI PHARMACEUTICALS CO., LTD., priority 2023, published 2026).

In one assay the test system is M-NFS-60 cells. Kind of assay: M-NFS-60 cell in vitro assay (CCK, 48 h, M-CSF factor medium). In kind it is cell-based. The note with it: M-NFS-60 cells; read-out: M-NFS-60cellassay IC50. In a few lines:
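Mouse M-NFS-60 cells (2000/well) in RPMI-1640 with 10% serum and M-CSF (25 ng/ml) were pre-incubated 4 h, then exposed to DMSO-diluted compound gradients for 48 h at 5% CO2. Viability read by CCK, 2 h, OD 450 nm; IC50 from curve fitting.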

In a further assay the target is DDR1 (Homo sapiens, UniProt Q08345). Kind of assay: DDR1 in vitro kinase activity assay (LanthaScreen Eu-anti-GST antibody / Kinase Tracer 178). The note with it: for inhibition at 0.01 µM: compound 10 nM, read-out: DDR1 inhibition rate, 10 nM; for inhibition at 0.1 µM: compound 100 nM, read-out: DDR1 inhibition rate, 100 nM. It is filed as binding. The procedure:
DDR1 in vitro Kinase Activity Assay:
• ENVISION (Perkinelmer, 2104) • White 384-well MicroPlate (Cat #264706, Nunc) • DDR1 (Cat #PV6047, Invitrogen) • 5× Kinase Buffer A (Cat #PV3189, Invitrogen) • Kinase Tracer 178 (Cat #PV5593, Invitrogen) • LanthaScreen® Eu-anti-GST Antibody (Cat #PV5594, Invitrogen)
The compounds to be tested were tested at two concentrations of 100 nM and 10 nM.
Kinase/Antibody Mixtures Preparation: Dilute Kinase/Antibody Mixtures with 1× Kinase Buffer to form 3× working solutions with final concentrations of 5 nM kinase and 2 nM Eu-Anti-GST Antibody, respectively.
Kinase Tracer 178 Preparation: Dilute Kinase Tracer 178 with 1× Kinase Buffer to make a 3× working solution with a final concentration of 10 nM.
After all reagents were prepared according to the methods described above, except for the enzyme, they were equilibrated to room temperature before starting the sample addition. • a) First, 3% DMSO solutions were prepared separately using the pre-prepared 1× kinase buffer (DMSO concentrations that were too high could affect the reaction, so the final concentration of DMSO was controlled at 1%). Then, the corresponding 3% DMSO solution for the enzyme was used to dilute the test compounds. Compounds were screened with two concentrations of 100 nM and 10 nM. Except for the control wells, 5 μL of the diluted test compound solution was added to the reaction wells, and 5 μL of the pre-prepared 3% DMSO solution was added to the control wells. • b) 5 μL of the pre-prepared Kinase/Antibody mixtures was added to all reaction wells except the negative control wells. For the negative control wells, 5 μL of 1× kinase buffer corresponding to the enzyme was added to make up the volume. • c) 5 μL of the pre-prepared Kinase Tracer 178 solution was added to all reaction wells. • d) The plate was sealed and mixed, incubated at room temperature for 1 hour, and the fluorescence signal was detected using the ENVISION (PerkinElmer) instrument (excitation at 340 nm, emission at 665 nm and 615 nm). The inhibition rate for each well was calculated based on the full-activity control wells and background signal wells, and the average value of the replicates was taken.

Sequence of DDR1 (Q08345 19-913): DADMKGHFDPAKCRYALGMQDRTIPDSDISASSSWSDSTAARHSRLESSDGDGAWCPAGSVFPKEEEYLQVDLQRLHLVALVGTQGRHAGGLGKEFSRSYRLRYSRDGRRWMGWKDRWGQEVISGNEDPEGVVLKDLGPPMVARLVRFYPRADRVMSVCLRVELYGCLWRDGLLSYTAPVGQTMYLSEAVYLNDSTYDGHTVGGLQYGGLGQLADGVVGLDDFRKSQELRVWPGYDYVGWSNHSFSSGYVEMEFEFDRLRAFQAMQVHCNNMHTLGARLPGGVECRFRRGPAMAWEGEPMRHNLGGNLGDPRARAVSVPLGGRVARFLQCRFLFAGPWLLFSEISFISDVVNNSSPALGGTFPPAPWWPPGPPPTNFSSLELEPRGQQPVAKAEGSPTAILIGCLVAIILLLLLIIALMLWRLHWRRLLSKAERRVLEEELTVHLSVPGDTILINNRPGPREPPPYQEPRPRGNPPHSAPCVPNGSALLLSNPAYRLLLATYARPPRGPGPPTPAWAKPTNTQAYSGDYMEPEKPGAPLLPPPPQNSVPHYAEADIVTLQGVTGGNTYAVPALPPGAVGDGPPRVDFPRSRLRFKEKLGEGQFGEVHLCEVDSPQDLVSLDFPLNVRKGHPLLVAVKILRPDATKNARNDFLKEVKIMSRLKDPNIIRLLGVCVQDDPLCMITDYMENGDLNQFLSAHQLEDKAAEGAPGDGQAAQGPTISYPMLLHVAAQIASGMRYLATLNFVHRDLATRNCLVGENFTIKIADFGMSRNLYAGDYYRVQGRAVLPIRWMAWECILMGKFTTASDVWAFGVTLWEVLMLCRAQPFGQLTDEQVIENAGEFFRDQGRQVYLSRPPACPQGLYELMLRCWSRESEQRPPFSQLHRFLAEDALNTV

For `CN1CCc2nc(NC(=O)c3cccc4c3CC[C@@H]4Nc3cncc(-c4cnn(C)c4)c3)sc2C1` [Compound 14ba], the IC50 – broadly, the concentration that inhibits the measured activity by half – in the assay on M-NFS-60 cells was under 50 nM. On DDR1, the inhibition (usually the drop in the measured response relative to a control, in per cent) at 0.01 µM turned out to be 32.4% and the inhibition at 0.1 µM amounted to 61.4%.

`CN1CCc2ccc(NC(=O)c3cccc4c3CC[C@@H]4Nc3cncc(-c4cnn(C)c4)c3)cc2C1` [Compound 14ap]: the IC50 in the assay on M-NFS-60 cells is under 50 nM. Further, at DDR1, the inhibition at 0.01 µM amounted to 75.8% and the inhibition at 0.1 µM was 100%.

Take `Cn1ncc2ncc(O[C@H]3CCc4c(C(=O)Nc5cncc(Cl)c5)cccc43)cc21` [Compound 76ac, (S)—N-(5-chloropyridin-3-yl)-1-((1-methyl-1H-pyrazolo[4,3-b]pyridin-6-yl)oxy)-2,3-dihydro-1H-indene-4-carboxamide]: the IC50 with M-NFS-60 cells is under 50 nM. On DDR1, the inhibition at 0.01 µM was determined as 72.5% and the inhibition at 0.1 µM was determined as 103%.

Regarding `Cn1cc(-c2cncc(N[C@H]3CCc4c(C(=O)Nc5nn(C)c6ccccc56)cccc43)n2)cn1` [Compound 27g, (S)—N-(1-methyl-1H-indazol-3-yl)-1-((6-(1-methyl-1H-pyrazol-4-yl)pyrazin-2-yl)amino)-2,3-dihydro-1H-indene-4-carboxamide], the concentration for half-maximal inhibition (IC50) with M-NFS-60 cells is under 50 nM. Besides, at DDR1, the inhibition at 0.01 µM amounted to 92.1% and the inhibition at 0.1 µM turned out to be 101%.

Take `Cc1cccc(NC(=O)c2cccc3c2CC[C@@H]3Nc2cncc(-c3cnn(C)c3)c2)c1` [Compound 13, (S)-1-((5-(1-methyl-1H-pyrazol-4-yl)pyridin-3-yl)amino)-N-(m-tolyl)-2,3-dihydro-1H-indene-4-carboxamide]: in the assay on M-NFS-60 cells, the IC50 was under 50 nM. At DDR1, the inhibition at 0.01 µM came out at 90.2% and the inhibition at 0.1 µM stood at 95.1%.

`Cn1cc(-c2cncc(N[C@H]3CCc4c(C(=O)Nc5cncc(Cl)c5)cccc43)c2)cn1` [Compound 14aa, (S)—N-(5-chloropyridin-3-yl)-1-((5-(1-methyl-1H-pyrazol-4-yl)pyridin-3-yl)amino)-2,3-dihydro-1H-indene-4-carboxamide]: the IC50 in the assay on M-NFS-60 cells was under 50 nM. At DDR1, the inhibition at 0.01 µM was 93.2% and the inhibition at 0.1 µM amounted to 104%.
